# US20220153751A1, “BIFUNCTIONAL COMPOUNDS” (BioTheryX, Inc., priority 2018, published 2022)
# Columns and labels:
# Format in all cases: cell-based
# IL-2 = IL-2 fold-change assay, anti-CD3 stimulated PBMCs (Mesoscale); settings: PBMC, PBMCs on anti-human CD3, 24 h, fold difference from the DMSO control
# Experimental: For the IL-2 analysis, 96 well plates were precoated with 1 μg/mL anti-human CD3 antibody (OK3, eBioscience Inc., San Diego, Calif.). After washing with PBS, the indicated compound was added (50 μL/well) followed by PBMCs diluted at 3-4 million cells/mL (150 μL/well). Plates were incubated for 24 h and the supernatants collected for Mesoscale IL-2 analysis. IL-2 activity is measured as fold difference from the DMSO control.
# In Table 6, the % inhibition values are reported as “A”, “B”, “C”, or “D”. “A” represents a % inhibition value of less than 50% (value <50%). “B” represents a % inhibition value of equal to or more than 50% and less than 70% (50%≤value<70%). “C” represents a % inhibition value of equal to or more than 70% and less than 90% (70%≤value<90%). “D” represents a % inhibition value of equal or more than 90% (value ≥90%). In Table 7, the fold-change values are reported as “A”, “B”, “C”, or “D”. “A” represents a fold-change value of equal to or less than 0.1 (value ≤0.1). “B” represents a fold-change value of more than 0.1 and equal to or less than 0.5 (0.1<value≤0.5). “C” represents a fold-change value of more than 0.5 and equal to or less than 1 (0.5<value≤1). “D” represents a fold-change value of more than 1 (value >1).
# GSPT1 = target: T1, GSPT1 (Homo sapiens, UniProt P15170+Q96SW2); assay: GSPT1 degradation assay (Western blot, MV-4-11 cells); settings: MV4-11, 6-8 h
# T1 construct: Whole cell extracts were prepared using RIPA buffer; endogenous in cells; host or cells: MV-4-11
# T1 sequence (P15170 whole entry): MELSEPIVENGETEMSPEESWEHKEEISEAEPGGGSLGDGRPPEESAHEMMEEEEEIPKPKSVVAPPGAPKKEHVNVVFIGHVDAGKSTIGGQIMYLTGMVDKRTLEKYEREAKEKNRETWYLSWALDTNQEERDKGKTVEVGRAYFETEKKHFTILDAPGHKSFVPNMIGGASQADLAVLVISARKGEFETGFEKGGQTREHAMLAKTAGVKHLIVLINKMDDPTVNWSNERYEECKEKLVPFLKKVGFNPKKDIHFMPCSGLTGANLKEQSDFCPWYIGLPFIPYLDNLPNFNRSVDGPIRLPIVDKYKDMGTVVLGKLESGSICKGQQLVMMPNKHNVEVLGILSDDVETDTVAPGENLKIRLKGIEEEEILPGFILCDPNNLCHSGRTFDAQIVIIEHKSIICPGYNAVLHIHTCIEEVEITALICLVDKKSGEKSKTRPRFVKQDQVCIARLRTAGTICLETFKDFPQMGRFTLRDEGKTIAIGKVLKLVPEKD
# T1 sequence (Q96SW2 whole entry): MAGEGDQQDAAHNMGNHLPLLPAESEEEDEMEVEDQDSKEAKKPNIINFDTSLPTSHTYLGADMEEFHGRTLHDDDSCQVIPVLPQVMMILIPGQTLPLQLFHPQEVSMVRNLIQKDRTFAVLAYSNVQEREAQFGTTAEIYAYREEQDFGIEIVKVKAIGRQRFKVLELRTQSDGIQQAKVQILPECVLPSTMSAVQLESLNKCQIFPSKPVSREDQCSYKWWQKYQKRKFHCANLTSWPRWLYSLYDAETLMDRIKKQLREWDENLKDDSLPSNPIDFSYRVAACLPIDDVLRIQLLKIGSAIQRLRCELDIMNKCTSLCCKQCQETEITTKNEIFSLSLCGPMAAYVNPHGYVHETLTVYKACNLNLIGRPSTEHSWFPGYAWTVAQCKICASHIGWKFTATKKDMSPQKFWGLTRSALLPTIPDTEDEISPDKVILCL
# T1 sequence (Q16531 whole entry partner): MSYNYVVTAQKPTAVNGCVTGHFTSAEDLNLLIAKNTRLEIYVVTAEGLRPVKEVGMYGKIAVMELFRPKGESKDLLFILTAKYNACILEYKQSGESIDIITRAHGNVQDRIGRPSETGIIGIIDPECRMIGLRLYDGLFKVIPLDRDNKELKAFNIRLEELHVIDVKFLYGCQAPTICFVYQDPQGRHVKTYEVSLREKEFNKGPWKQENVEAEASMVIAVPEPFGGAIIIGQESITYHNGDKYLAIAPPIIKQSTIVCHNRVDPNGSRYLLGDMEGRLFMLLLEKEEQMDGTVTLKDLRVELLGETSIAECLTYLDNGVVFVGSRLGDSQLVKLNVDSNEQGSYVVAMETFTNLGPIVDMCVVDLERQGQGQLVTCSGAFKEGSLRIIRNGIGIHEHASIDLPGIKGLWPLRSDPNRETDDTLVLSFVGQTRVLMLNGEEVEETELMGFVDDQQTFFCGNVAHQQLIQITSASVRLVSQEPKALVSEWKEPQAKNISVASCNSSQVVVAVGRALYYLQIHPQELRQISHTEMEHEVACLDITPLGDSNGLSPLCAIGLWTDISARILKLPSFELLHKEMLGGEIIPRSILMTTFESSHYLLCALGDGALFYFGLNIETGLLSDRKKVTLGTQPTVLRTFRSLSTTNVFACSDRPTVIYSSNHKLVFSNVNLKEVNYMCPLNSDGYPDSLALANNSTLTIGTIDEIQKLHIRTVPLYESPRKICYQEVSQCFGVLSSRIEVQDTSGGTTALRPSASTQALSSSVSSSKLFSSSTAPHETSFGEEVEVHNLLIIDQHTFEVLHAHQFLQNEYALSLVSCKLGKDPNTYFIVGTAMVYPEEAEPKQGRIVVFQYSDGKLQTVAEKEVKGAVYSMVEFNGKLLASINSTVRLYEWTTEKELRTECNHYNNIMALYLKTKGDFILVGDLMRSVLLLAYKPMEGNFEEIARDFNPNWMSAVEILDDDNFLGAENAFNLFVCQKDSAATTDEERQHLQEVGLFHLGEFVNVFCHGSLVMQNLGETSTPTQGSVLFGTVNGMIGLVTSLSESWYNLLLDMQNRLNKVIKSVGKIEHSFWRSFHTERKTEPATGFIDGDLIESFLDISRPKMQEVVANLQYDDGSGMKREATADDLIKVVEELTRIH
# Outline: (§1)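 Reported degradation is grouped into four bands (A below 25%, B 25% to under 50%, C 50% to under 75%, D 75% or more). Treatment lasts 6-8 h against a DMSO control, followed by RIPA extraction and immunoblotting with near-infrared detection.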
# CDK16 = target: T2, CDK16 (Homo sapiens, UniProt Q00536); assay: CDK16 degradation assay (Western blot, MV-4-11 cells); settings: 6-8 h; for Dmax at 0.1 µM: MV4-11, 0.1 μM; for Dmax at 1 µM: MV4-11, 1 μM
# T2 construct: Whole cell extracts were prepared using RIPA buffer; endogenous in cells; host or cells: MV-4-11
# T2 sequence (Q00536 whole entry): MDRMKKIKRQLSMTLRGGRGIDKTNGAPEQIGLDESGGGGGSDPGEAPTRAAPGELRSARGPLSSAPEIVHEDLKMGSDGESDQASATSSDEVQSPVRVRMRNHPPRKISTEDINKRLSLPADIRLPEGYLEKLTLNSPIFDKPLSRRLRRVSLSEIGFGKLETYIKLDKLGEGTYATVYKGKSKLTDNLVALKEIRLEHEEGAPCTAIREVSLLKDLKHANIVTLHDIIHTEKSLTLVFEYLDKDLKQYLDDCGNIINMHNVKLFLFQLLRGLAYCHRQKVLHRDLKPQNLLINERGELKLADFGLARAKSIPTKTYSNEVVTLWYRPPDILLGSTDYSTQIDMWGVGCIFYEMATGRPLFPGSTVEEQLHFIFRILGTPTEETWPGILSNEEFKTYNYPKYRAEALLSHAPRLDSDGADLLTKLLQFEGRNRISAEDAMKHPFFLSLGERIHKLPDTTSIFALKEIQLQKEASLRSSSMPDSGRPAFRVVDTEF
# Outline: as §1
# CDK9 = target: T3, CDK9 (Homo sapiens, UniProt P50750); assay: CDK9 degradation assay (Western blot, MV-4-11 cells); settings: 6-8 h; for Dmax at 0.1 µM: MV4-11, 0.1 μM; for Dmax at 1 µM: MV4-11, 1 μM
# T3 construct: Whole cell extracts were prepared using RIPA buffer; endogenous in cells; host or cells: MV-4-11
# T3 sequence (P50750 whole entry): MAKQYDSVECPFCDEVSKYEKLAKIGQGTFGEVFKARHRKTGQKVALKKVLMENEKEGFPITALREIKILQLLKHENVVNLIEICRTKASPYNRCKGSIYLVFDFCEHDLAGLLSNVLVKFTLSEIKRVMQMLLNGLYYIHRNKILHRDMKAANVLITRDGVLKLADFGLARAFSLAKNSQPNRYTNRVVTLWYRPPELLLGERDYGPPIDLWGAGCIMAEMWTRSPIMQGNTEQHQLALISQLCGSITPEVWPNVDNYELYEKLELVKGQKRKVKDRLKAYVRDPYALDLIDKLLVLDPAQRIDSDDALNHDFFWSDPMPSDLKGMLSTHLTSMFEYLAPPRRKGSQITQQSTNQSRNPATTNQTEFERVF
# Outline: as §1
# IL-6 = IL-6 inhibition assay, LPS-induced PBMCs / CD14+ monocytes (Meso Scale); settings: 1 h pretreatment, 100 ng/mL LPS 18-24 h
# Outline: (§2)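 Thawed human PBMCs or CD14+ mobilized peripheral blood monocytes, 200,000 cells/well in RPMI-1640/10% FBS, pretreated with compound or DMSO 1 h, then stimulated with 100 ng/mL LPS for 18-24 h. Supernatant cytokine measured by Meso Scale; % inhibition binned A–D (<50%, 50–70%, 70–90%, ≥90%), fold-change binned A–D (≤0.1, ≤0.5, ≤1, >1).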
# IKAROS = target: T4, IKAROS (Homo sapiens, UniProt Q13422+Q96SW2); assay: IKAROS degradation assay (Western blot, MV-4-11 cells); settings: MV4-11, 6-8 h
# T4 construct: endogenous in cells; host or cells: MV-4-11
# T4 sequence (Q13422 whole entry): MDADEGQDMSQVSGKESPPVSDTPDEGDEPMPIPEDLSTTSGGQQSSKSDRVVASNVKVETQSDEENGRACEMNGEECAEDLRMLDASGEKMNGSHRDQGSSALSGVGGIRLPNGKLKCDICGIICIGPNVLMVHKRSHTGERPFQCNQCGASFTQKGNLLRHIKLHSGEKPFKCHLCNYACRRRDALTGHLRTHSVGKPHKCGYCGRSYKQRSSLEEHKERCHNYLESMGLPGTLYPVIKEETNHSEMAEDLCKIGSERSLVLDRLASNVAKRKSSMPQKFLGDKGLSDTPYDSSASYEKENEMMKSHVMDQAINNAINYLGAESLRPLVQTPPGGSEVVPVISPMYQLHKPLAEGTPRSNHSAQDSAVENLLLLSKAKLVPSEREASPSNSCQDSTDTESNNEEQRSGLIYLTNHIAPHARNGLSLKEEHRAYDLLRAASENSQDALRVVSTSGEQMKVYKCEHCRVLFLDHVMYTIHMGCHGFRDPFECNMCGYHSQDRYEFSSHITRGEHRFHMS
# T4 sequence (Q96SW2 whole entry): as the sequence (Q96SW2 whole entry) above
# T4 sequence (Q16531 whole entry partner): as the sequence (Q16531 whole entry partner) above
# Outline: as §1
# IL-1β = IL-1β inhibition assay, LPS-induced PBMCs / CD14+ monocytes (Meso Scale); settings: 1 h pretreatment, 100 ng/mL LPS 18-24 h
# Outline: as §2
# CK1α = target: T5, CK1α (Homo sapiens, UniProt P48729+Q96SW2); assay: CK1α degradation assay (Western blot, MV-4-11 cells); settings: MV4-11, 6-8 h
# T5 construct: Whole cell extracts were prepared using RIPA buffer; endogenous in cells; host or cells: MV-4-11
# T5 sequence (P48729 whole entry): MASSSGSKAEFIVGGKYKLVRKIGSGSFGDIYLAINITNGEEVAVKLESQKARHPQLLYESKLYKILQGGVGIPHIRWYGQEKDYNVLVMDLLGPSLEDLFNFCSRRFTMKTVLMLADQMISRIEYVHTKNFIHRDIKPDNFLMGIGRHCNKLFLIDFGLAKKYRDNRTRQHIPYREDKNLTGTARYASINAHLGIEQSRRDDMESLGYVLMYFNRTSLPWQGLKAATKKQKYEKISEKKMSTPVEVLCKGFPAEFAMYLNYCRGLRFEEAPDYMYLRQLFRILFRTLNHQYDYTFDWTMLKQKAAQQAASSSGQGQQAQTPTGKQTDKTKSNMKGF
# T5 sequence (Q96SW2 whole entry): as the sequence (Q96SW2 whole entry) above
# T5 sequence (Q16531 whole entry partner): as the sequence (Q16531 whole entry partner) above
# Outline: as §1
# TNF-α = TNF-α inhibition assay, LPS-induced PBMCs / CD14+ monocytes (Meso Scale); settings: 1 h pretreatment, 100 ng/mL LPS 18-24 h
# Outline: as §2
# MOLM-13 cells = assay: MOLM-13 cell viability assay (CellTiter-Glo); settings: Homo sapiens, MOLM-13, 72 h, 3 days, read-out: MOLM-13 Cell Viability % DMSO at 1 μM
# Outline: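 MOLM-13 cells at 2500 cells/well were exposed to compound for 3 days at 37 °C. Viability was read by CellTiter-Glo luminescence and expressed as % of DMSO control, binned A (<50%), B (50–<70%), C (70–<90%) or D (≥90%).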
Dmax at 1 µM (GSPT1),Dmax at 0.1 µM (CDK16),Dmax at 1 µM (CDK16),Dmax at 0.1 µM (CDK9),Dmax at 1 µM (CDK9),Dmax at 1 µM (IKAROS),Dmax at 1 µM (CK1α),Compound,fold induction at 1 µM (IL-2),inhibition at 1 µM (IL-6),inhibition at 1 µM (IL-1β),inhibition at 1 µM (TNF-α),viability at 1 µM (MOLM-13 cells)
≥ 75%,< 25%,< 25%,50 to 75%,≥ 75%,50 to 75%,50 to 75%,"CC(C)(C)c1cnc(CSc2cnc(NC(=O)C3CCN(CC(=O)NCCOCCOCCOCCNCC(=O)NCc4scc5c4CN(C4CCC(=O)NC4=O)C5=O)CC3)s2)o1 (stereo not drawn) [Compound 41, N-(5-(((5-(tert-butyl)oxazol-2-yl)methyl)thio)thiazol-2-yl)-1-(1-(5-(2,6-dioxopiperidin-3-yl)-4-oxo-5,6-dihydro-4H-thieno[3,4-c]pyrrol-1-yl)-3,18-dioxo-8,11,14-trioxa-2,5,17-triazanonadecan-19-yl)piperidine-4-carboxamide]",0.1 to 0.5,> 90%,> 90%,70 to 90%,70 to 90%
50 to 75%,,,,,25 to 50%,25 to 50%,"Cn1ncc(-c2nc(N[C@H]3CC[C@H](NCC(=O)NCCCCNCC(=O)NCc4cc5c(s4)C(=O)N(C4CCC(=O)NC4=O)C5=O)CC3)ncc2F)c1CC1CC1 (stereo partly drawn) [Compound 37, 2-(((1r,4r)-4-((4-(5-(cyclopropylmethyl)-1-methyl-1H-pyrazol-4-yl)-5-fluoropyrimidin-2-yl)amino)cyclohexyl)amino)-N-(4-((2-(((5-(2,6-dioxopiperidin-3-yl)-4,6-dioxo-5,6-dihydro-4H-thieno[2,3-c]pyrrol-2-yl)methyl)amino)-2-oxoethyl)amino)butyl)acetamide]",0.1 to 0.5,> 90%,> 90%,70 to 90%,50 to 70%
50 to 75%,,,,,≥ 75%,25 to 50%,"Cn1ncc(-c2nc(N[C@H]3CC[C@H](NCC(=O)NCCOCCOCCOCCNc4cccc5c4CN(C4CCC(=O)NC4=O)C5=O)CC3)ncc2Cl)c1CC1CC1 (stereo partly drawn) [Compound 55, 2-(((1r,4r)-4-((5-chloro-4-(5-(cyclopropylmethyl)-1-methyl-1H-pyrazol-4-yl)pyrimidin-2-yl)amino)cyclohexyl)amino)-N-(2-(2-(2-(2-((2-(2,6-dioxopiperidin-3-yl)-1-oxoisoindolin-4-yl)amino)ethoxy)ethoxy)ethoxy)ethyl)acetamide]",≤ 0.1,> 90%,> 90%,> 90%,> 90%

# The remaining lines, values behind:
Compound,Dmax at 1 µM (GSPT1),Dmax at 0.1 µM (CDK16),Dmax at 1 µM (CDK16),Dmax at 0.1 µM (CDK9),Dmax at 1 µM (CDK9),Dmax at 1 µM (IKAROS),Dmax at 1 µM (CK1α),fold induction at 1 µM (IL-2),inhibition at 1 µM (IL-6),inhibition at 1 µM (IL-1β),inhibition at 1 µM (TNF-α),viability at 1 µM (MOLM-13 cells)
"CC(C)(C)c1cnc(CSc2cnc(NC(=O)C3CCN(CC(=O)NCCOCCOCCNCC(=O)NCc4cc5c(s4)C(=O)N(C4CCC(=O)NC4=O)C5)CC3)s2)o1 (stereo not drawn) [Compound 34, N-(5-(((5-(tert-butyl)oxazol-2-yl)methyl)thio)thiazol-2-yl)-1-(1-(5-(2,6-dioxopiperidin-3-yl)-6-oxo-5,6-dihydro-4H-thieno[2,3-c]pyrrol-2-yl)-3,15-dioxo-8,11-dioxa-2,5,14-triazahexadecan-16-yl)piperidine-4-carboxamide]",50 to 75%,25 to 50%,< 25%,< 25%,≥ 75%,50 to 75%,25 to 50%,≤ 0.1,70 to 90%,70 to 90%,70 to 90%,> 90%
"CC(C)(C)c1cnc(CSc2cnc(NC(=O)C3CCN(CC(=O)NCCCCCCCNC(=O)NCc4cc5c(s4)C(=O)N(C4CCC(=O)NC4=O)C5)CC3)s2)o1 (stereo not drawn) [Compound 18, N-(5-(((5-(tert-butyl)oxazol-2-yl)methyl)thio)thiazol-2-yl)-1-(2-((7-(3-((5-(2,6-dioxopiperidin-3-yl)-6-oxo-5,6-dihydro-4H-thieno[2,3-c]pyrrol-2-yl)methyl)ureido)heptyl)amino)-2-oxoethyl)piperidine-4-carboxamide]",50 to 75%,,,,,25 to 50%,50 to 75%,≤ 0.1,> 90%,> 90%,70 to 90%,> 90%
